Data set [1] is described as follows: Velagliflozin plasma levels after single i.v. dosing in lactating cows. Type of data set: in vivo, Holstein-Frisian cows. The conditions noted are these: i.v. 0.03, 0.3, 3 mg/kg bodyweight, n=4 lactating cows; FIG. 1. How it is done:
(§1) Velagliflozin treatment is tested in n=4 lactating Holstein-Frisian cows. In weekly intervals, velagliflozin is administered intravenously (i.v.) in increasing doses (0.03 mg/kg bodyweight-0.3 mg/kg bodyweight-3 mg/kg bodyweight) in the morning after AM (ante meridian) milking into the right jugular vein in a volume of 2.5 ml of a propylene glycol based solution per 100 kg body weight. Blood samples for determination of velagliflozin plasma levels and urine samples for determination of glucose and creatinine levels are collected one day prior to treatment and ˜8 hours, ˜24 hours and ˜48 hours post treatment and stored frozen until being analysed. Blood glucose and ketone body (beta-hydroxy-butyrate) concentrations are determined immediately after blood collection at the same time points. The total urinary creatinine excreted per day is rather constant in mammals, thus, since urine volume was not determined, the glucose to creatinine ratio was calculated as a surrogate of the total glucose excretion. All animals are milked twice daily, in the morning (ante meridian—AM) and in the late afternoon (post meridian—PM). Throughout the study, milk yield is recorded as kg per animal per milking.

Data set [2] relates to lactating Holstein-Frisian cows. Kind of data set: Urinary glucose excretion normalized to urinary creatinine after single i.v. dosing in lactating cows. It is filed as in vivo. The conditions noted are these: i.v. 0.03, 0.3, 3 mg/kg bodyweight; urine ~8 h, ~24 h, ~48 h post treatment; FIG. 1. How it is done: as §1
Data set [3] shares this test system. Put plainly: Milk yield per milking after single i.v. dosing in lactating cows. To be noted: i.v. 0.03, 0.3, 3 mg/kg bodyweight after AM milking; PM milking about 8 hours after administration; FIG. 2. Type of data set: in vivo. How it is done: as §1
Data set [4] is described as follows: Blood glucose and ketone body (beta-hydroxy-butyrate) concentrations after treatment in lactating cows. Type of data set: in vivo, Holstein-Frisian cows. To be noted: after treatment with all dosages (0.03, 0.3, 3 mg/kg bodyweight i.v.). How it is done:
as §1

Consider `N#Cc1ccc([C@@H]2O[C@H](CO)[C@@H](O)[C@H](O)[C@H]2O)cc1Cc1ccc(C2CC2)cc1` [velagliflozin, Velagliflozin], for which, in data set [1], the Velagliflozin plasma level result was “linear dose to exposure relationship”. Also, in data set [2], the “urinary glucose excretion normalized to urinary creatinine” value is listed as “increases in a dose/exposure dependent manner”. Further, the “milk yield of the subsequent milking (PM)” value in data set [3] is “decreases in a dose/exposure dependent manner”. For the same compound, in data set [4], the blood glucose level result is “within normal reference ranges”. The ketone body level result in data set [4] (beta-hydroxy-butyrate) is listed as “within normal reference ranges”.
